# Results: patent publication US20230046904A1, “COMBINATION OF SMALL MOLECULE INHIBITOR OF THE PD-1/PD-L1 INTERACTION AND ANTI-PD-1 ANTIBODY FOR TREATING CANCER” (GUANGZHOU MAXINOVEL PHARMACEUTICALS CO., LTD., priority 2019, published 2023)
# What was measured:
# [1] = system: B16F10 tumor cells (melanoma); assay: Anti-tumor efficacy in the B16F10 model in C57BL/6 mice; assay type: in vivo; conditions: PO, BID
# Method: Materials required for the experiment: Antibody: mouse PD-1 antibody, Product specifications: 7.09 mg/mL (50 mg/mL), Lot No.: 695318A1 purchased from BioXcell, storage at 4° C. Experimental animals 60 C57BL/6 mice, female, 6-8 weeks old, 17-21 g, purchased from Shanghai Lingchang Biotechnology Co. Ltd. Formulation materials: castor oil (Cremophor RH40), CAS No.: 61788-85-0, Lot No.: 29761847G0, purchased from Shanghai Xietai Chemical Co. Ltd.; β-cyclodextrin (SBE-β-CD), CAS No.: 128446-35-5, Lot No.: 20180110, purchased from Shanghai Shaoyuan Chemical Co. Ltd.; DMEM culture medium, Art. No.: 11995-065, Lot No.: 2025378, purchased from Gibco Co. Ltd.; PBS, Art. […]
# Cell preparation and implantation: The B16-F10 tumor cells (ATCC CRL-6475™) are maintained in vitro as a monolayer culture in DMEM medium supplemented with 10% heat inactivated fetal bovine serum at 37° C. in an atmosphere of 5% CO2 in air. […] The cells growing to a confluency around 70%-80% are harvested and counted for tumor inoculation. […]
# Procedure: The mice in the vehicle group are weighed and recorded in the electronic balance according to their numbers. […]
# The mice in the antibody (10 mg/kg) group are weighed and recorded in the electronic balance according to their numbers. […]
# The mice in the compound (30 mg/kg) group are weighed and recorded in the electronic balance according to their numbers. […]
# [2] = system: PD-L1 suppressed human T cells; assay: Activation of T-Cell Suppressed by PD-L1 (co-culture with PD-L1 transfected Hep3B cells, IFN-γ readout); assay type: cell-based; conditions: dose-dependent; Keytruda as positive control
# Text: To measure the cellular activity of the compound, a protocol of Activation of T-Cell Suppressed by PD-L1 is used. In this protocol, human Hep3B cells are stably transfected with human PD-L1. The human T cells containing PD-1 are inactivated by co-culturing with these PD-L1 transfected cells. Then anti-PD-1 antibody Keytruda® (pembrolizumab) is selected as the reference to profile the compound for its activation of PD-L1 suppressed human T-cells. […] Keytruda is used as a positive control.
# 4T1 tumor cells [3] = assay: Anti-tumor efficacy of Compound 1 and Opdivo in the 4T1 humanized mouse model; assay type: in vivo; conditions: for TGI at day 13: p<0.0001
# Method: (§1) 4T1 tumor cells (ATCC, CRL-2539™) are maintained in vitro as a monolayer culture in RPMI 1640 medium supplemented with 10% heat inactivated fetal bovine serum at 37° C. in an atmosphere of 5% CO2 in air. The tumor cells are routinely subcultured three times weekly by trypsin-EDTA treatment. Each mouse is inoculated subcutaneously at the fourth mammary pad with 1×10^5 in 0.05 mL base medium for tumor development.
# (§2) Compound 1 plus Opdivo (nivolumab): 40 BALB/c mice are inoculated subcutaneously at the fourth mammary pad with 4T1 cells for tumor development. On the six days of post inoculation, the mice are assigned into 4 groups using stratified randomization with 10 mice in each group based upon their tumor volume. The treatments are started from the day of randomization, and the groups receive the following treatments:
# Group 1: Vehicle control; Group 2: Opdivio, 10 mg/kg, i.p., BIW; Group 3: Compound 1, 60 mg/kg, p.o., BID and Group 4: Compound 1, 60 mg/kg, p.o., BID+Opdivio, 10 mg/kg, i.p., BIW respectively.
# (§3) The tumor sizes are measured three times per week during the treatment.
# The tumor growth inhibition effect of the combination of Compound 1 and Opdivo is examined. The tumor inhibition rate is calculated as:
# TGI (%)=(1−(the volume of the tumor on the day of administration−the volume of the tumor on the first day of administration (treatment group))/(the volume of the tumor on the day of administration−the volume of the tumor on the first day (vehicle group)))×100%.
# 4T1 tumor cells [4] = assay: Anti-tumor efficacy of Compound 1 and Keytruda in the 4T1 humanized mouse model; assay type: in vivo
# Method: as §1
# as §2, with “1 plus Keytruda (pembrolizumab): 40 BALB/c” for “1 plus Opdivo (nivolumab): 40 BALB/c”, “the mice were assigned into” for “the mice are assigned into”, “The treatments were started from” for “The treatments are started from”
# Group 1: Vehicle control; Group 2: Keytruda, 10 mg/kg, i.p., BIW; Group 3: Compound 1, 60 mg/kg, p.o., BID, and Group 4: Compound 1, 60 mg/kg, p.o., BID+Keytruda, 10 mg/kg, i.p., BIW respectively.
# as §3
# The tumor growth inhibition effect of the combination of Compound 1 and Keytruda is examined. The tumor inhibition rate is calculated as:
# TGI (%)=(1−(the volume of the tumor on the day of administration−the volume of the tumor on the first day of administration (treatment group))/(the volume of the tumor on the day of administration−the volume of the tumor on the first day (vehicle group))×100%.
compound,measurement,setting,value
Cc1c(/C=C/c2cc(CN[C@@](C)(CO)C(=O)O)ccc2C(F)(F)F)cccc1-c1ccccc1 [Compound 1],growth of subcutaneous transplanted melanoma cell line in mice,[1]; C57BL/6 mice,significantly inhibits the growth
same,tolerability in C57BL/6 mice,[1]; up to 120 mg/kg,well tolerated in C57BL/6 mice without obvious adverse reactions
same,"activation of PD-L1 suppressed human T cells, indicated by increase of cytokine IFN-γ",[2],effectively restores the activation of the PD-L1 suppressed human T cells
same,TGI at day 13,"4T1 tumor cells [3]; 60 mg/kg, PO, BID",21.70%
same,TGI at day 10,"4T1 tumor cells [4]; 60 mg/kg, PO, BID, p<0.0001",22.36%
nivolumab [Opdivo],TGI at day 13,"4T1 tumor cells [3]; 10 mg/kg, IP, BIW",21.88%
same,time after dosing within which mice are found dead,"4T1 tumor cells [3]; after the 5th dose of Opdivo at day 14, 10 mg/kg i.p. BIW, mice",≤ 1 h
pembrolizumab [Keytruda],TGI at day 10,"4T1 tumor cells [4]; 10 mg/kg, IP, BIW, p>0.5",9.12%
same,time after dosing within which mice are found dead,"4T1 tumor cells [4]; after the 4th dose of Keytruda at day 10, 10 mg/kg i.p. BIW, mice",≤ 1 h
